# How the values were obtained:
# Assay type in all cases: in vivo
# [1] = tested on: Alopecurus myosuroides (ALOMY); assay: Pre-emergence biological efficacy (Example 13); details: Alopecurus myosuroides, 312 h; pre-emergence, 1,000 g/ha, after 13 days; read-out: Percentage damage ALOMY
# Procedure: (§1) Seeds of Alopecurus myosuroides (ALOMY), Setaria faberi (SETFA), Echinochloa crus-galli (ECHCG), Solanum nigrum (SOLNI), Amaranthus retroflexus (AMARE) and Ipomea hederaceae (IPOHE) were sown in standard soil in pots. After cultivation for one day under controlled conditions in a glasshouse (at 24/16° C., day/night; 14 hours light; 65% humidity), the plants were sprayed with an aqueous spray solution derived from the formulation of the technical active ingredient in acetone/water (50:50) solution containing 0.5% Tween 20 (polyoxyethylene sorbitan monolaurate, CAS RN 9005-64-5) to give a final dose of 250 or 1000g/ha of test compound. The test plants were then grown under controlled conditions in the glasshouse (at 24/16° C., day/night; 14 hours light; 65% humidity) and watered twice daily. After 13 days the test was evaluated (100 =total damage to plant; 0 =no damage to plant).
# [2] = tested on: Amaranthus retroflexus (AMARE); assay: Pre-emergence biological efficacy (Example 13); details: Amaranthus retroflexus, 312 h; pre-emergence, 1,000 g/ha, after 13 days; read-out: Percentage damage AMARE
# Procedure: as §1
# [3] = tested on: Echinochloa crus-galli (ECHCG); assay: Pre-emergence biological efficacy (Example 13); details: Echinochloa crus-galli, 312 h; pre-emergence, 1,000 g/ha, after 13 days; read-out: Percentage damage ECHCG
# Procedure: as §1
# [4] = tested on: Ipomea hederaceae (IPOHE); assay: Pre-emergence biological efficacy (Example 13); details: Ipomoea hederacea, 312 h; pre-emergence, 1,000 g/ha, after 13 days; read-out: Percentage damage IPOHE
# Procedure: as §1
# [5] = tested on: Setaria faberi (SETFA); assay: Pre-emergence biological efficacy (Example 13); details: Setaria faberi, 312 h; pre-emergence, 1,000 g/ha, after 13 days; read-out: Percentage damage SETFA
# Procedure: as §1
# [6] = tested on: Solanum nigrum (SOLNI); assay: Pre-emergence biological efficacy (Example 13); details: Solanum nigrum, 312 h; pre-emergence, 1,000 g/ha, after 13 days; read-out: Percentage damage SOLNI
# Procedure: as §1
# [7] = tested on: Alopecurus myosuroides (ALOMY); assay: Post-emergence biological efficacy (Example 14); details: Alopecurus myosuroides, 312 h; post-emergence, 1,000 g/ha, after 13 days; read-out: Percentage damage ALOMY
# Procedure: as §1, with “for 8 days” for “for one day”, “or 1000 g/ha” for “or 1000g/ha”, “grown on” for “grown”, “in a” for “in the”, “evaluated (100=total” for “evaluated (100 =total”, “plant; 0=no” for “plant; 0 =no”
# [8] = tested on: Amaranthus retroflexus (AMARE); assay: Post-emergence biological efficacy (Example 14); details: Amaranthus retroflexus, 312 h; post-emergence, 1,000 g/ha, after 13 days; read-out: Percentage damage AMARE
# Procedure: as §1, with “for 8 days” for “for one day”, “or 1000 g/ha” for “or 1000g/ha”, “grown on” for “grown”, “in a” for “in the”, “evaluated (100=total” for “evaluated (100 =total”, “plant; 0=no” for “plant; 0 =no”
# [9] = tested on: Echinochloa crus-galli (ECHCG); assay: Post-emergence biological efficacy (Example 14); details: Echinochloa crus-galli, 312 h; post-emergence, 1,000 g/ha, after 13 days; read-out: Percentage damage ECHCG
# Procedure: as §1, with “for 8 days” for “for one day”, “or 1000 g/ha” for “or 1000g/ha”, “grown on” for “grown”, “in a” for “in the”, “evaluated (100=total” for “evaluated (100 =total”, “plant; 0=no” for “plant; 0 =no”
# [10] = tested on: Ipomea hederaceae (IPOHE); assay: Post-emergence biological efficacy (Example 14); details: Ipomoea hederacea, 312 h; post-emergence, 1,000 g/ha, after 13 days; read-out: Percentage damage IPOHE
# Procedure: as §1, with “for 8 days” for “for one day”, “or 1000 g/ha” for “or 1000g/ha”, “grown on” for “grown”, “in a” for “in the”, “evaluated (100=total” for “evaluated (100 =total”, “plant; 0=no” for “plant; 0 =no”
# [11] = tested on: Setaria faberi (SETFA); assay: Post-emergence biological efficacy (Example 14); details: Setaria faberi, 312 h; post-emergence, 1,000 g/ha, after 13 days; read-out: Percentage damage SETFA
# Procedure: as §1, with “for 8 days” for “for one day”, “or 1000 g/ha” for “or 1000g/ha”, “grown on” for “grown”, “in a” for “in the”, “evaluated (100=total” for “evaluated (100 =total”, “plant; 0=no” for “plant; 0 =no”
# [12] = tested on: Solanum nigrum (SOLNI); assay: Post-emergence biological efficacy (Example 14); details: Solanum nigrum, 312 h; post-emergence, 1,000 g/ha, after 13 days; read-out: Percentage damage SOLNI
# Procedure: as §1, with “for 8 days” for “for one day”, “or 1000 g/ha” for “or 1000g/ha”, “grown on” for “grown”, “in a” for “in the”, “evaluated (100=total” for “evaluated (100 =total”, “plant; 0=no” for “plant; 0 =no”
# [13] = tested on: ABUTH Abutilon theophrasti; assay: Post-emergence crop and weed test (Example 15); details: 360 h, after 15 days, read-out: Percentage damage ABUTH
# Procedure: (§2) Seeds of crop and representative weed species were sown in standard soil in pots. After cultivation for 14 days under controlled conditions in a glasshouse (at 22/16° C., day/night; 16 hours light; 65% humidity), the plants were sprayed. The spray solution was prepared by dissolving the technical active ingredient in acetone containing 10.56 wt % Emulsogen EL, 42.22 wt % N-methylpyrrolidone and 2.22 wt % DPG-monoethyl ether to give a 5% stock solution. This was then diluted with water containing 0.2% (v/v) of the adjuvant X-77 to give the desired treatment concentration.
# (§3) The test plants were then grown on under controlled conditions in a glasshouse (at 22/16° C., day/night; 16 hours light; 65% humidity) and watered twice daily. After 15 days the test was evaluated (100 =total damage to plant; 0 =no damage to plant).
# [14] = tested on: AMARE Amaranthus retroflexus; assay: Post-emergence crop and weed test (Example 15); details: 360 h, after 15 days, read-out: Percentage damage AMARE
# Procedure: as §2, §3
# [15] = tested on: CHEAL Chenopodium album; assay: Post-emergence crop and weed test (Example 15); details: 360 h, after 15 days, read-out: Percentage damage CHEAL
# Procedure: as §2, §3
# [16] = tested on: EPHHL Euphorbia heterophylla; assay: Post-emergence crop and weed test (Example 15); details: 360 h, after 15 days, read-out: Percentage damage EPHHL
# Procedure: as §2, §3
# [17] = tested on: GLXMA Soybean; assay: Post-emergence crop and weed test (Example 15); details: Glycine max, 360 h, after 15 days, read-out: Percentage damage GLXMA
# Procedure: as §2, §3
# [18] = tested on: IPOHE Ipomoea hederacea; assay: Post-emergence crop and weed test (Example 15); details: 360 h, after 15 days, read-out: Percentage damage IPOHE
# Procedure: as §2, §3
# [19] = tested on: KCHSC Kochia scoparia; assay: Post-emergence crop and weed test (Example 15); details: Bassia scoparia, 360 h, after 15 days, read-out: Percentage damage KCHSC
# Procedure: as §2, §3
# [20] = tested on: POLCO Polygonum convolvulus; assay: Post-emergence crop and weed test (Example 15); details: Fallopia convolvulus, 360 h, after 15 days, read-out: Percentage damage POLCO
# Procedure: as §2, §3
# [21] = tested on: SIDSP Sida spinosa; assay: Post-emergence crop and weed test (Example 15); details: 360 h, after 15 days, read-out: Percentage damage SIDSP
# Procedure: as §2, §3
# [22] = tested on: SINAR Sinapis arvensis; assay: Post-emergence crop and weed test (Example 15); details: Mutarda arvensis, 360 h, after 15 days, read-out: Percentage damage SINAR
# Procedure: as §2, §3
# [23] = tested on: VERPE Veronica persica; assay: Post-emergence crop and weed test (Example 15); details: 360 h, after 15 days, read-out: Percentage damage VERPE
# Procedure: as §2, §3
# [24] = tested on: XANST Xanthium strumarium; assay: Post-emergence crop and weed test (Example 15); details: 360 h, after 15 days, read-out: Percentage damage XANST
# Procedure: as §2, §3
# [25] = tested on: GALAP Galium aparine; assay: Post-emergence crop and weed test (Example 15); details: 360 h, after 15 days, read-out: Percentage damage GALAP
# Procedure: as §2, §3
smiles,measurement,setting,value
"C=Cc1c(N)nc(-c2ccc(Cl)nc2)nc1C(=O)OC [Compound 8, 4-amino-2-(6-chloropyridin-3-yl)-5-ethenyl-6-methoxycarbonyl-pyrimidine]",pest or weed control at 1000 g/ha,[1],10%
same,pest or weed control at 1000 g/ha,[2],100%
same,pest or weed control at 1000 g/ha,[3],0%
same,pest or weed control at 1000 g/ha,[4],40%
same,pest or weed control at 1000 g/ha,[5],10%
same,pest or weed control at 1000 g/ha,[6],40%
same,pest or weed control at 1000 g/ha,[7],0%
same,pest or weed control at 1000 g/ha,[8],100%
same,pest or weed control at 1000 g/ha,[9],0%
same,pest or weed control at 1000 g/ha,[10],50%
same,pest or weed control at 1000 g/ha,[11],0%
same,pest or weed control at 1000 g/ha,[12],90%
same,pest or weed control at 250 g/ha,[13]; 250 g/ha,60%
same,pest or weed control at 250 g/ha,[14]; 250 g/ha,100%
same,pest or weed control at 250 g/ha,[15]; 250 g/ha,100%
same,pest or weed control at 250 g/ha,[16]; 250 g/ha,40%
same,plant injury at 250 g/ha,[17]; 250 g/ha,10%
same,pest or weed control at 250 g/ha,[18]; 250 g/ha,50%
same,pest or weed control at 250 g/ha,[19]; 250 g/ha,60%
same,pest or weed control at 250 g/ha,[20]; 250 g/ha,60%
same,pest or weed control at 250 g/ha,[21]; 250 g/ha,20%
same,pest or weed control at 250 g/ha,[22]; 250 g/ha,70%
same,pest or weed control at 250 g/ha,[23]; 250 g/ha,80%
same,pest or weed control at 250 g/ha,[24]; 250 g/ha,80%
"COC(=O)c1nc(-c2ccc(Cl)c(N(C)C)c2F)nc(N)c1Cl [Ref. Ex. A, 4-Amino-5-chloro-2-(4-chloro-3-dimethylamino-2-fluorophenyl)-6-methoxycarbonyl-pyrimidine, reference compound]",pest or weed control at 30 g/ha,[13]; 30 g/ha,90%
same,pest or weed control at 30 g/ha,[14]; 30 g/ha,100%
same,pest or weed control at 30 g/ha,[15]; 30 g/ha,80%
same,pest or weed control at 30 g/ha,[16]; 30 g/ha,80%
same,pest or weed control at 30 g/ha,[25]; 30 g/ha,30%
same,plant injury at 30 g/ha,[17]; 30 g/ha,50%
same,pest or weed control at 30 g/ha,[18]; 30 g/ha,70%
same,pest or weed control at 30 g/ha,[19]; 30 g/ha,80%
same,pest or weed control at 30 g/ha,[20]; 30 g/ha,90%
same,pest or weed control at 30 g/ha,[21]; 30 g/ha,80%
same,pest or weed control at 30 g/ha,[22]; 30 g/ha,70%
same,pest or weed control at 30 g/ha,[23]; 30 g/ha,70%
same,pest or weed control at 30 g/ha,[24]; 30 g/ha,90%
"C/C=C/c1c(N)nc(C2CC2)nc1C(=O)OC [Ref. Ex. D, (E)-4-Amino-2-cyclopropyl-6-methoxycarbonyl-5-(prop-1-enyl)-pyrimidine, reference compound]",pest or weed control at 125 g/ha,[13],50%
same,pest or weed control at 125 g/ha,[14],60%
same,pest or weed control at 125 g/ha,[15],60%
same,pest or weed control at 125 g/ha,[16],80%
same,pest or weed control at 125 g/ha,[25],80%
same,plant injury at 125 g/ha,[17],80%
same,pest or weed control at 125 g/ha,[18],70%
same,pest or weed control at 125 g/ha,[19],10%
same,pest or weed control at 125 g/ha,[20],20%
same,pest or weed control at 125 g/ha,[21],60%
same,pest or weed control at 125 g/ha,[22],80%
same,pest or weed control at 125 g/ha,[23],10%
same,pest or weed control at 125 g/ha,[24],60%
"C=Cc1c(NCc2ccco2)nc(C2CC2)nc1C(=O)OC [Ref. Ex. F, 2-Cyclopropyl-5-ethenyl-4-(furan-2-ylmethylamino)-6-methoxycarbonyl-pyrimidine, reference compound]",pest or weed control at 125 g/ha,[13],60%
same,pest or weed control at 125 g/ha,[14],40%
same,pest or weed control at 125 g/ha,[15],80%
same,pest or weed control at 125 g/ha,[16],80%
same,pest or weed control at 125 g/ha,[25],80%
same,plant injury at 125 g/ha,[17],80%
same,pest or weed control at 125 g/ha,[18],70%
same,pest or weed control at 125 g/ha,[19],30%
same,pest or weed control at 125 g/ha,[20],60%
same,pest or weed control at 125 g/ha,[21],60%
same,pest or weed control at 125 g/ha,[22],80%
same,pest or weed control at 125 g/ha,[23],0%
same,pest or weed control at 125 g/ha,[24],60%
